In patent US20210087565A1, “ANTISENSE ANTIBIOTICS AND BACTERIAL SECRETION BASED DELIVERY SYSTEM TO ELIMINATE DRUG-RESISTANT BACTERIA” (priority 2018, published 2021):
“Also recorded” adds a separate entry of the source. Like-named read-outs stand apart in the source and are kept apart here.

Columns and labels:
[1] = tested on: SL1344-mCherry in HeLa cells; test: Double infection of HeLa cells, PNA delivery and release by SL1344-Holin; type: cell-based, Salmonella enterica serovar typhimurium
Experimental: FIG. 14. Combining the bacterial Type III secretion system (T3SS) and the holing/endolysin kill switch for PNA delivery and release. (A) Schematic showing the PNA deliver and release approach using the T3SS and Holin systems respectively to treat an intracellular infection of HeLa cells. HeLa cells were seeded 24 hours prior to infection. A 4:1 mixture of SL1344-Holin to SL1344-mCherry cells with (Bottom) and without (Top) 45 minute PNA pretreatment used to infect HeLa cells for 45 minutes. (Bottom) The PNA enters SL1344-Holin during the 45 minute pretreatment and is carried into the HeLa cell during infection. Following infection and gentamicin protection, the PNA is released from the SL1344-Holin during the 18-hours of treatment to target the SL1344-mCherry population. After 18-hours of incubation the HeLa cells are lysed to determine the number of intracellular colony forming units. (B) Normalized intracellular bacterial load represented as the ratio of normalized SL1344-mCherry:
To that end, the present inventors built a “delivery strain” of Salmonella by expressing the holin lysis cassette, encoding a holin-antiholin according to SEQ ID NO. 34, under control of an inducible laciQ promoter (referred to as SL1344-Holin, FIG. 24), and a therapeutic “target strain” of Salmonella by expressing mCherry from a plasmid in SL1344 (referred to as SL1344-mCherry). The present inventors followed the same infection protocol as described above with few modifications and treated cells with a different PNA, α-recA (N′-[…]-AEEA-[…]-C′), to show the generalizability of the assay. […] As with the previous experiment, the present inventors allowed the Salmonella to uptake the PNA during a 45 minute incubation where the treatment condition (referred to as T3SS-PNA) consisted of SL1344-Holin incubated with 10 μM of α-recA in phosphate buffer saline (PBS) and the no treatment was incubated in only PBS. In parallel, equal cell densities of the target strain SL1344-mCherry was incubated with PBS for 45-minutes. SL1344-Holin (with or without PNA) and SL1344-mCherry cells were washed and mixed in a ratio of 4:1 respectively to achieve a final total MOI of approximately 10:1 for infection of HeLa cells. The infection was carried out for 45 minutes followed by the removal of extracellular bacteria using a gentamicin wash (FIG. 5A), and 18 hours of incubation in fresh growth medium containing gentamicin. […] To account for this variation, the present inventors measured the extracellular and intracellular bacterial load before and after infection respectively and reported the normalized ratio of the latter to the former (FIG. 5B-C, FIG. 26). […]

SL1344 = test: Growth inhibition of SL1344 in broth culture; type: cell-based, Salmonella enterica serovar typhimurium; conditions: 10 μM, 24 hours
Experimental: FIG. 25. α-recA growth inhibition of SL1344. Optical density was measured at 600 nm in 50 μL cultures and normalized optical density is reported at 24 hours as absorbance at 600 nm minus media blank and each biological replicate normalized to the optical density reading at time zero. Overnight cultures of SL1344 were diluted 1:10,000 and treated with 10 μM addition of α-recA for 24 hours. Error bars indicate standard deviation of n=3 biological replicates.

CRE E. coli [2] = test: PNA growth assay (optical density) on clinical isolate; type: cell-based, Escherichia coli; conditions: for growth inhibition: 10 μM PNA, optical density vs no treatment at 16 hours
Experimental: (§1) Bacterial Cell culture: The clinical isolates were obtained from the lab of Nancy Madinger at the University of Colorado Anschutz campus. Clinical isolates were grown in Cation Adjusted Mueller Hinton broth (CAMHB) (Becton, Dickinson and Company 212322) at 37° C. with 225 rpm shaking or on solid CAMHB with 1.5% agar at 37° C. Clinical isolates were maintained as freezer stocks in 90% CAMHB, 10% glycerol at −80° C. Freezer stocks were streaked out onto solid CAMHB and incubated for 16 h to produce single colonies prior to experiments. For each biological replicate, a single colony was picked from solid media and grown for 16 h in liquid CAMHB prior to experiments. Non-clinical isolates, such as E. coli MG1655 (ATCC700926) and Salmonella entorica serovar typhimurium SL1344, were cultured in liquid 2% lysogeny broth (LB) or on 2% LB with 1.5% agar for solid plates. S. typhimurium cultures were supplemented with 30 μg/mL streptomycin and SL1344 strains containing plasmids pFPV (SL1344-mCherry) or pRG1 modified with a lacIq promoter (SL1344-Holin) were supplemented with 100 μg/mL ampicillin. Freezer stocks were stored in 60% LB broth, 40% glycerol at −80° C. Freezer stocks were streaked out onto solid LB and incubated for 16 h to produce single colonies before experiments. For biological replicates, single colonies were started in liquid LB and grown for 16 hours prior to experiments. E. coli MG1655 PNA growth experiments were carried out in M9 media (1×M9 minimal media salts solution (MP Biomedicals), 2.0 mM MgSO4, and 0.1 mM CaCl2 in sterile water) with 0.4% glucose.
(§2) PNA growth assay: Biological replicates were diluted 1:10,000 into treatment condition in 384-well plates and measured for 24 h in a Tecan GENios at 562 nm with a bandwidth of 35 nm. Media absorbance blanks were subtracted from data prior to analysis. Normalized optical density (OD) data is shown normalized to the time point where the “no treatment” growth curves reached saturation phase which varied across biological replicates.

MDR E. coli = test: as above; type: cell-based, Escherichia coli; conditions: for growth inhibition: 10 μM PNA, optical density vs no treatment at 16 hours
Experimental: as §1, §2

ESBL KPN [3] = test: as above; type: cell-based, Klebsiella pneumoniae; conditions: for monotherapy effect (in words): 10 μM
Experimental: as §1, §2

MDR STm = test: as above; type: cell-based, Salmonella enterica serovar typhimurium; conditions: MDR STm; 10 μM PNA; optical density vs no treatment at 16 hours
Experimental: as §1, §2

ESBL KPN [4] = test: Potentiation of antibiotics with PNAs (Bliss Independence); type: cell-based, Klebsiella pneumoniae; conditions: 10 μM PNA + 2 μg/mL tetracycline; for S-value (Bliss Independence model): S>0 indicates synergy
Experimental: (§3) Combinatorial effects were evaluated using the Bliss Independence model where the S parameter defines a deviation from no interaction as is defined as: […]
(§4) Where ODAB is the OD at saturation time in only antibiotic, OD0 is the OD at saturation in no treatment, ODPNA is the OD at saturation in only antisense-PNA at 10 μM, and ODAB, PNA is the OD at saturation in a combination of antibiotic and antisense-PNA. Saturation time was determined as the time when the no treatment control reached its saturation growth phase. S>0 is a deviation towards synergy and S<0 is a deviation towards antagonism.

NDM-1 KPN = test: Antibiotic resistance screening (MIC against CLSI breakpoints); type: cell-based, Klebsiella pneumoniae; conditions: meropenem, CLSI 2016-2017 breakpoints
Experimental: (§5) Phenotypic antibiotic resistance characterization of the clinical isolates was performed to determine “sensitive” (S), “intermediate” (I), and “resistant” (R) phenotypes using the 2016-2017 Clinical & Laboratory Standards Institute (CLSI) sensitive/resistant breakpoint values (Table 4).
(§6) Antibiotic resistance screening: Sensitive/resistant breakpoints were taken from the 2016-2017 Clinical & Laboratory Standards Institute report (Table 4). Liquid cultures of the clinical strains were diluted to a 0.5 McFarland standard and added to the respective antibiotic test condition. The antibiotic minimum inhibitory concentration (MIC) for each clinical isolate was determined as the lowest antibiotic concentration which prevented visible cell growth for 24 h. Strains were: “sensitive” if the MIC was equal to or below the sensitive-breakpoint concentration, “resistant” if the MIC was greater than or equal to the resistant-breakpoint concentration, and “intermediate” if the MIC was in-between.

[5] = tested on: clinical isolates of Enterobacteriaceae; test: Antibiotic resistance screening (MIC against CLSI breakpoints), all strains; type: cell-based; conditions: CLSI 2016-2017 breakpoints
Experimental: as §5, §6

E. coli MG1655 = test: Growth curves and CFU of lab strain treated with PNA; type: cell-based, Escherichia coli; conditions: 10 μM
Experimental: FIG. 7. Dose response of various PNA. Optical density of a 1:10,000 dilution of MG6155 from overnight liquid culture, treated with various concentrations of antisense inhibitors was measured for 3 biological replicates with error bars as standard deviations. Normalized growth was measured as the optical density at 22 hours normalized to no treatment. An asterisk (*) indicates a significant difference (p<0.05) as compared to no treatment for each inhibitor.
FIG. 8. Antisense Inhibitors targeting novel pathways can inhibit growth of E. coli. z. (A) Growth curves of E. coli MG1655 from a 1:10,000 dilution from an overnight culture, normalized to time t=0 with 10 μM of respective antisense inhibitor. […] (B) Colony forming units per milliliter of MG1655 E. coli for respective treatment as a function of time. The CFU/mL at t=0 represents the starting culture after a 1:100,000 dilution from overnight culture. […] Significance is measured as p<0.05.
as §1
PNA growth assay: Biological replicates were diluted 1:10,000 into treatment condition in 384-well plates and measured for 24 h in a Tecan GENios at 562 nm with a bandwidth of 35 nm. Media absorbance blanks were subtracted from data prior to analysis. […]

CRE E. coli [6] = type: cell-based, Escherichia coli; conditions: for S-value (Bliss Independence model): S>0 indicates synergy; for growth with combination therapy (in words): p<0.05
Experimental: as §3, §4

[7] = 10 μM PNA + chloramphenicol 8 μg/mL

N′-KFFKFFKFFK-AEEA-GTCGATAGCAT-C′ [α-recA]
drop of normalized ratio of SL1344-mCherry to SL1344-Holin ([1]; SL1344-Holin pretreated 45 minutes with 10 μM PNA, HeLa cells, 18 hours, compared to no treatment): 99.6±0.72% | fate of target strain SL1344-mCherry (in words) ([1]; two out of three biological replicates, across a range of MOI): completely eliminated | normalized mCherry/Holin (in words) ([1]; with 1 mM IPTG during treatment, p=0.006): Significant decrease | normalized mCherry/Holin (in words) ([1]; without IPTG (leaky expression), p=0.026): Significant decrease | effect on Salmonella in broth cultures (in words) (SL1344): lethal

α-ffh: 12-mer antisense PNA GACAATGTTTGA (SEQ ID NO. 16) targeting ffh, conjugated to (KFF)3K cell penetrating peptide via AEEA-linker (all peptide nucleic acid (PNA); (KFF)3K cell-penetrating peptide attached via AEEA linker)
growth inhibition (CRE E. coli [2]): 98±1.5% | growth inhibition (MDR E. coli): 99±0.9% | monotherapy effect (in words) (ESBL KPN [3]): no or minimal growth inhibition | growth inhibition (MDR STm): 99±0.8% | growth with combination therapy (in words) (ESBL KPN [4]): significant growth inhibition compared to each monotherapy | S-value (Bliss Independence model) (ESBL KPN [4]): positive

C[C@@H](O)[C@H]1C(=O)N2C(C(=O)O)=C(S[C@@H]3CN[C@H](C(=O)N(C)C)C3)[C@H](C)[C@H]12 [meropenem]
antibiotic resistance phenotype (NDM-1 KPN): resistant

CO/N=C(\C(=O)N[C@@H]1C(=O)N2C(C(=O)O)=C(CSc3nc(=O)c(=O)[nH]n3C)CS[C@H]12)c1csc(N)n1 [ceftriaxone]
antibiotic resistance phenotype ([5]; ceftriaxone): resistant

CC1(C)S[C@@H]2[C@H](NC(=O)[C@H](N)c3ccccc3)C(=O)N2[C@H]1C(=O)O [ampicillin]
antibiotic resistance phenotype ([5]; ampicillin): resistant

α-gyrB: 12-mer antisense PNA GTTGATGTCGAA (SEQ ID NO. 18) targeting gyrB, conjugated to (KFF)3K cell penetrating peptide via AEEA-linker (all peptide nucleic acid (PNA); (KFF)3K cell-penetrating peptide attached via AEEA linker)
monotherapy effect (in words) (CRE E. coli [2]; 10 μM): partial therapeutic effect; also recorded: effective in killing | growth inhibition (CRE E. coli [2]): 71±12% | monotherapy effect (in words) (MDR E. coli): effective in killing | growth inhibition (MDR E. coli): 36±14.2% | monotherapy effect (in words) (ESBL KPN [3]): no or minimal growth inhibition | growth inhibition (ESBL KPN [3]; 10 μM PNA, optical density vs no treatment at 16 hours): 5±1.4% | growth inhibition (MDR STm): 74±15.4% | effect on growth (in words) (E. coli MG1655): effective in killing | S-value (Bliss Independence model) (CRE E. coli [6]; [7]): 0.27 | growth with combination therapy (in words) (CRE E. coli [6]; [7]): significant growth inhibition with combination therapy compared to each monotherapy | S-value (Bliss Independence model) (CRE E. coli [6]; 10 μM PNA + gentamicin 4 μg/mL): 0.19 | growth with combination therapy (in words) (CRE E. coli [6]; 10 μM PNA + gentamicin 4 μg/mL): significant growth inhibition with combination therapy compared to each monotherapy | growth with combination therapy (in words) (ESBL KPN [4]): significant growth inhibition compared to each monotherapy | S-value (Bliss Independence model) (ESBL KPN [4]): positive
